Measured values: patent US9549932B2, “2-(morpholin-4-yl)-1,7-naphthyridines” (BAYER PHARMA AKTIENGESELLSCHAFT, priority 2014, dated 2017)
Structures can show the parent of a compound that is named as a salt.

Target: full-length human ATR protein (Homo sapiens (Human), UniProt Q13535)
Assay: Binding assay ATR (TR-FRET tracer displacement)
Details: tracer A, TR-FRET; read-out: ATR binding (tracer A) IC50
How it was run: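 Full-length human GST-ATR co-purified with ATRIP, pre-complexed 30 min at 22 °C with anti-GST-Tb antibody, then pre-bound with compound 10 min. Tracer A or B added (2 µl of 100 nM solution), 30 min at 22 °C.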

Chain of full-length human ATR protein (Q13535 other isoform, or with tags, fused parts or gaps): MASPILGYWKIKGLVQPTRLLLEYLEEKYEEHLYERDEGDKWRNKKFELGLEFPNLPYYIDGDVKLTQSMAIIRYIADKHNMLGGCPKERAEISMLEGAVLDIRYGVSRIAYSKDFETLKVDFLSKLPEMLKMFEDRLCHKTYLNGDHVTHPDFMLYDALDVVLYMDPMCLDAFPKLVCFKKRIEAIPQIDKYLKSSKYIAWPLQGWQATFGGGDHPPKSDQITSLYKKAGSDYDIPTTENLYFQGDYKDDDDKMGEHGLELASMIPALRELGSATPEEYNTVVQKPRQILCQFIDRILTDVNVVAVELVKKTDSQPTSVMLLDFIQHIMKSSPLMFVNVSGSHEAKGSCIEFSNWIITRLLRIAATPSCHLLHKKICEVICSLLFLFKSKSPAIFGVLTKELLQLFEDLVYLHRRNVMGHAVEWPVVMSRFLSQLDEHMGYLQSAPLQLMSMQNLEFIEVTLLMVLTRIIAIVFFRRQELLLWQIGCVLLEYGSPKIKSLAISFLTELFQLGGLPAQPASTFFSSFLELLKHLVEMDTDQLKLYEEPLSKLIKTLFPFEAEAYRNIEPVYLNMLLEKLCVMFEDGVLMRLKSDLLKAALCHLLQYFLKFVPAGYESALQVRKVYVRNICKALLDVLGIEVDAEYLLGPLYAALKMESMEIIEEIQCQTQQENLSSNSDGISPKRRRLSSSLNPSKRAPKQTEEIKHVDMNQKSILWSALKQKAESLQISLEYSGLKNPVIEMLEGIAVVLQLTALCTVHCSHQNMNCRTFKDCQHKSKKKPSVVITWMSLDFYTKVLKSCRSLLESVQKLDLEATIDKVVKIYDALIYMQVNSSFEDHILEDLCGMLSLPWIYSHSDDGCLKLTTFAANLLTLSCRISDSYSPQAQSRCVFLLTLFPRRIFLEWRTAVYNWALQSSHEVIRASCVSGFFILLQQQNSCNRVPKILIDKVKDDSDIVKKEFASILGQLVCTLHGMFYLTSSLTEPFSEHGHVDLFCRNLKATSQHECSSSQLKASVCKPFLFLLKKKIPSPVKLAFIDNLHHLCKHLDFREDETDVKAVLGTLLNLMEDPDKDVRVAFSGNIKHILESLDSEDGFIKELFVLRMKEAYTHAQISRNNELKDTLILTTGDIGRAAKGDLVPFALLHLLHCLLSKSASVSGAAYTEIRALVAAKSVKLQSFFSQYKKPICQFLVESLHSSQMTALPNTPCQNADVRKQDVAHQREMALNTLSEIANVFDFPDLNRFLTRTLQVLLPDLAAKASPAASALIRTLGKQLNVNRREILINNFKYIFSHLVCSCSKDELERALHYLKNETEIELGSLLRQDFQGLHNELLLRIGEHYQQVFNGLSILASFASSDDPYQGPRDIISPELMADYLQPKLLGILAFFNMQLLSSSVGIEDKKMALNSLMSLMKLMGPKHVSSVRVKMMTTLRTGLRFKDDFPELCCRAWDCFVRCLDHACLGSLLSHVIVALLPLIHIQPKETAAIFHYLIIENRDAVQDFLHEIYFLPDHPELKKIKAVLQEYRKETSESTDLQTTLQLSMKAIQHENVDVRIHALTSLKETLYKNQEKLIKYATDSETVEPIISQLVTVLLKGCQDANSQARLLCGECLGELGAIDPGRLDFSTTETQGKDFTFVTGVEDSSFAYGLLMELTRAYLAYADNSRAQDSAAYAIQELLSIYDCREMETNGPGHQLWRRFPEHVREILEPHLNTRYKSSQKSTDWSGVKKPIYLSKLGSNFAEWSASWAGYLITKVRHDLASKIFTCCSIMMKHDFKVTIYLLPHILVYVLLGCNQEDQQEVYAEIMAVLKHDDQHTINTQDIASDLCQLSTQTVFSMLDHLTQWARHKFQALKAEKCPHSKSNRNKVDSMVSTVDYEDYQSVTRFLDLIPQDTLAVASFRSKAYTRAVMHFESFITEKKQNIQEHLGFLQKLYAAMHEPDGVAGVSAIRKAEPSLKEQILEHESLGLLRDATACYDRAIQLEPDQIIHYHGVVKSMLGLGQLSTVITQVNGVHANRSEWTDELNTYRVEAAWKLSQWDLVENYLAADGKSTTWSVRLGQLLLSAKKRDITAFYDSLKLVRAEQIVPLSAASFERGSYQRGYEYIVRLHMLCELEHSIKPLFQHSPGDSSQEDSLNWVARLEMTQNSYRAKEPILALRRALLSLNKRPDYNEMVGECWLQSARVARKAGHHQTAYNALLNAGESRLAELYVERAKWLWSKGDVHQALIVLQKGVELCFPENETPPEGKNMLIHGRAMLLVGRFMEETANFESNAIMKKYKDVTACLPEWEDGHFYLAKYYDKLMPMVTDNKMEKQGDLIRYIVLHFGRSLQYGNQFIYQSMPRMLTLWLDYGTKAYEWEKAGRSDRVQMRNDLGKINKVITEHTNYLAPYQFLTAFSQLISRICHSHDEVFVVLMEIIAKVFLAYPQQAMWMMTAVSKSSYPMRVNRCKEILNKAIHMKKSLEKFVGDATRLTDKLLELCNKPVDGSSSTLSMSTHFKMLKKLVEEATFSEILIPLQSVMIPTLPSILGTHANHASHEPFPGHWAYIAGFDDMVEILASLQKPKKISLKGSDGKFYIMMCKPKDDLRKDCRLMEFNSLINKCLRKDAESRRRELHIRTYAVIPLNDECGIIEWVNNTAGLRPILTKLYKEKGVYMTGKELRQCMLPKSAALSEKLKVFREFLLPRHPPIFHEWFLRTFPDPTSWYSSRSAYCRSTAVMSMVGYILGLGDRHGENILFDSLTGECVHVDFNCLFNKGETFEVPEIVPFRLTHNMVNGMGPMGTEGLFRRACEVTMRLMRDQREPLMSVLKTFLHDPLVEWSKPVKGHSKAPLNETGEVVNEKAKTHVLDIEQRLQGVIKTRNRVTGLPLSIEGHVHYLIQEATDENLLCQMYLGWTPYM
Chain of full-length human ATR protein (Q8WXE1 other isoform, or with tags, fused parts or gaps partner): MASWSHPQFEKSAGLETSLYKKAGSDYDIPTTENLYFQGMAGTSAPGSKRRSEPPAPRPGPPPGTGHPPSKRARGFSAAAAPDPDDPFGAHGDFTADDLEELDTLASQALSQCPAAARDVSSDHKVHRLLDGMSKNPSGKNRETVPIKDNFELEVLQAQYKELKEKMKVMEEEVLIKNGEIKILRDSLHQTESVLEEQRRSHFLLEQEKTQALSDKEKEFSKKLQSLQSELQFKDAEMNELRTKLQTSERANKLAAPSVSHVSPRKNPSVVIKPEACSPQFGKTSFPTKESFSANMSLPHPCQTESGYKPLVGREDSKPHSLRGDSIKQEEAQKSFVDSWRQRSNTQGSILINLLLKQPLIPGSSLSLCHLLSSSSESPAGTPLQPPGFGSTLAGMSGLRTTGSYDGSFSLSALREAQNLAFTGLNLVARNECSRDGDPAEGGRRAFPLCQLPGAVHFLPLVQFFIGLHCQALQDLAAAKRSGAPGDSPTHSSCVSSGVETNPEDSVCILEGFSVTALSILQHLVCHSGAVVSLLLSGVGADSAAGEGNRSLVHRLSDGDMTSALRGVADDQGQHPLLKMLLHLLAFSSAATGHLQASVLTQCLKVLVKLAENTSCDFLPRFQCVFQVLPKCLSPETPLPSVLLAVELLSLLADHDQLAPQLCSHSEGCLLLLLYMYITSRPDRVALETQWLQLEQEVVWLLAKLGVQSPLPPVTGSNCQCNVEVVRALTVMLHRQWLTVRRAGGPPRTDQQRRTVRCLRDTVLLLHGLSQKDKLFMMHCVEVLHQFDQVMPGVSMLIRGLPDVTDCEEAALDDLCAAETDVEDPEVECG

Question: `COc1cc(N2CCOC[C@H]2C)nc2c(-c3cc[nH]n3)nccc12` [Example 53, 4-methoxy-2-((R)-3-methylmorpholin-4-yl)-8-(1H-pyrazol-3-yl)-[1,7]naphthyridine] was tested. Which IC50 did it give?
Answer: Its IC50 is 192 nM.

Question: How did the IC50 turn out when `C[C@@H]1COCCN1c1cc(C(C)(C)O)c2ccnc(-c3ccn[nH]3)c2n1` [Example 128, 2-{2-[(3R)-3-methylmorpholin-4-yl]-8-(1H-pyrazol-5-yl)-1,7-naphthyridin-4-yl}propan-2-ol] was run?
Answer: Its IC50 is 32.6 nM.

Question: How did the IC50 turn out when `C[C@@H]1COCCN1c1cc(C2(O)CCCCC2)c2ccnc(-c3ccn[nH]3)c2n1` [Example 189, 1-{2-[(3R)-3-methylmorpholin-4-yl]-8-(1H-pyrazol-5-yl)-1,7-naphthyridin-4-yl}cyclohexanol] was run?
Answer: Its IC50 is 21.4 nM.

Question: How did the IC50 turn out when `C[C@@H]1COCCN1c1cc(-c2ccnn2C(C)(C)C)c2ccnc(-c3ccn[nH]3)c2n1` [Example 110, 4-(1-tert-butyl-1H-pyrazol-5-yl)-2-[(3R)-3-methylmorpholin-4-yl]-8-(1H-pyrazol-5-yl)-1,7-naphthyridine] was run?
Answer: The IC50 was 13.5 nM.

Question: With `O=c1cc(-c2cc(N3CCOCC3)nc3c(-c4ccn[nH]4)nccc23)cc[nH]1` [Example 22, 4-[2-(morpholin-4-yl)-8-(1H-pyrazol-5-yl)-1,7-naphthyridin-4-yl]pyridin-2(1H)-one] as the molecule, how does the IC50 read?
Answer: The IC50 was 465 nM.

Question: How did the IC50 turn out when `C[C@@H]1COCCN1c1cc(-c2cncn2Cc2ccccc2)c2ccnc(-c3ccn[nH]3)c2n1` [Example 76, 4-(1-benzyl-1H-imidazol-5-yl)-2-[(3R)-3-methylmorpholin-4-yl]-8-(1H-pyrazol-5-yl)-1,7-naphthyridine] was run?
Answer: The IC50 was 8.91 nM.

Question: For `c1cc(-c2nccc3c(-c4cc[nH]n4)cc(N4CCOCC4)nc23)[nH]n1` [Example 387, 2-(morpholin-4-yl)-4-(1H-pyrazol-3-yl)-8-(1H-pyrazol-5-yl)-1,7-naphthyridine], which IC50 is on record?
Answer: Its IC50 is 218 nM.

Question: How did the IC50 turn out when `Oc1cccc(-c2cc(N3CCOCC3)nc3c(-c4ccn[nH]4)nccc23)c1` [Example 337, 3-[2-(morpholin-4-yl)-8-(1H-pyrazol-5-yl)-1,7-naphthyridin-4-yl]phenol] was run?
Answer: The IC50 was 28.4 nM.

Question: `C[C@@H]1COCCN1c1cc(-c2cccn2C)c2ccnc(-c3ccn[nH]3)c2n1` [Example 91, 2-[(3R)-3-methylmorpholin-4-yl]-4-(1-methyl-1H-pyrrol-2-yl)-8-(1H-pyrazol-5-yl)-1,7-naphthyridine] was tested. Which IC50 did it give?
Answer: Its IC50 is 10 nM.

Question: How did the IC50 turn out when `CC(C)S(=O)(=O)c1cc(N2CCOCC2)nc2c(-c3ccn[nH]3)nccc12` [Example 199, 2-(morpholin-4-yl)-4-(propan-2-ylsulfonyl)-8-(1H-pyrazol-5-yl)-1,7-naphthyridine] was run?
Answer: The IC50 was 138 nM.

Question: For `Cc1cc(-c2cc(N3CCOC[C@H]3C)nc3c(-c4ccn[nH]4)nccc23)on1` [Example 112, 2-[(3R)-3-methylmorpholin-4-yl]-4-(3-methyl-1,2-oxazol-5-yl)-8-(1H-pyrazol-5-yl)-1,7-naphthyridine], which IC50 is on record?
Answer: The IC50 was 4.74 nM.

Question: For `COC(=O)c1cc(-c2cc(N3CCOCC3)nc3c(-c4ccn[nH]4)nccc23)cs1` [Example 403, methyl 4-[2-(morpholin-4-yl)-8-(1H-pyrazol-5-yl)-1,7-naphthyridin-4-yl]thiophene-2-carboxylate], which IC50 is on record?
Answer: The IC50 was 194 nM.

Question: For `Cc1c(-c2cc(N3CCOC[C@H]3C)nc3c(-c4ccn[nH]4)nccc23)cnn1C` [Example 250, 4-(1,5-dimethyl-1H-pyrazol-4-yl)-2-[(3R)-3-methylmorpholin-4-yl]-8-(1H-pyrazol-5-yl)-1,7-naphthyridine], which IC50 is on record?
Answer: The IC50 was 6.62 nM.

Question: For `CS(=O)(=O)c1ccccc1-c1cc(N2CCOCC2)nc2c(-c3cc[nH]n3)nccc12` [Example 8, 4-(2-methanesulphonylphenyl)-2-(morpholin-4-yl)-8-(1H-pyrazol-3-yl)-[1,7]naphthyridine hydrochloride], which IC50 is on record?
Answer: Its IC50 is 118 nM.

Question: `FC(F)(F)c1cccc(-c2cc(N3CCOCC3)nc3c(-c4ccn[nH]4)nccc23)c1` [Example 303, 2-(morpholin-4-yl)-8-(1H-pyrazol-5-yl)-4-[3-(trifluoromethyl)phenyl]-1,7-naphthyridine] was tested. Which IC50 did it give?
Answer: Its IC50 is 86.1 nM.

Question: Which IC50 does the source give for `c1ccc2sc(-c3cc(N4CCOCC4)nc4c(-c5ccn[nH]5)nccc34)cc2c1` [Example 347, 4-(1-benzothiophen-2-yl)-2-(morpholin-4-yl)-8-(1H-pyrazol-5-yl)-1,7-naphthyridine] here?
Answer: Its IC50 is 241 nM.

Question: How did the IC50 turn out when `COc1cccc(OC)c1-c1cc(N2CCOCC2)nc2c(-c3ccn[nH]3)nccc12` [Example 342, 4-(2,6-dimethoxyphenyl)-2-(morpholin-4-yl)-8-(1H-pyrazol-5-yl)-1,7-naphthyridine] was run?
Answer: Its IC50 is 2770 nM.

Question: How did the IC50 turn out when `CCn1nc(C)cc1-c1cc(N2CCOC[C@H]2C)nc2c(-c3ccn[nH]3)nccc12` [Example 113, 4-(1-ethyl-3-methyl-1H-pyrazol-5-yl)-2-[(3R)-3-methylmorpholin-4-yl]-8-(1H-pyrazol-5-yl)-1,7-naphthyridine] was run?
Answer: The IC50 was 5.71 nM.

Question: For `O=S1(=O)CCC12CN(c1cc(N3CCOCC3)nc3c(-c4ccn[nH]4)nccc13)C2` [Example 425, 4-(1,1-dioxido-1-thia-6-azaspiro[3.3]hept-6-yl)-2-(morpholin-4-yl)-8-(1H-pyrazol-5-yl)-1,7-naphthyridine], which IC50 is on record?
Answer: The IC50 was 1000 nM.

Question: For `O=C1OCCN1c1cc(N2CCOCC2)nc2c(-c3ccn[nH]3)nccc12` [Example 226, 3-[2-(morpholin-4-yl)-8-(1H-pyrazol-5-yl)-1,7-naphthyridin-4-yl]-1,3-oxazolidin-2-one], which IC50 is on record?
Answer: The IC50 was 1140 nM.

Question: `C[C@@H]1COCCN1c1cc(-c2cccc(F)c2F)c2ccnc(-c3ccn[nH]3)c2n1` [Example 72, 4-(2,3-difluorophenyl)-2-[(3R)-3-methylmorpholin-4-yl]-8-(1H-pyrazol-5-yl)-1,7-naphthyridine] was tested. Which IC50 did it give?
Answer: Its IC50 is 6.33 nM.

Question: With `COC1CCN(c2cc(N3CCOCC3)nc3c(-c4ccn[nH]4)nccc23)CC1` [Example 430, 4-(4-methoxypiperidin-1-yl)-2-(morpholin-4-yl)-8-(1H-pyrazol-5-yl)-1,7-naphthyridine] as the molecule, how does the IC50 read?
Answer: The IC50 was 61.3 nM.

Question: How did the IC50 turn out when `Cc1cscc1-c1cc(N2CCOCC2)nc2c(-c3ccn[nH]3)nccc12` [Example 370, 4-(4-methylthiophen-3-yl)-2-(morpholin-4-yl)-8-(1H-pyrazol-5-yl)-1,7-naphthyridine] was run?
Answer: Its IC50 is 35 nM.

Question: How did the IC50 turn out when `Fc1ccc(-c2cc(N3CCOCC3)nc3c(-c4ccn[nH]4)nccc23)c(F)n1` [Example 366, 4-(2,6-difluoropyridin-3-yl)-2-(morpholin-4-yl)-8-(1H-pyrazol-5-yl)-1,7-naphthyridine] was run?
Answer: The IC50 was 52.1 nM.

Question: How did the IC50 turn out when `C[C@@H]1COCCN1c1cc(-c2cccnc2O)c2ccnc(-c3ccn[nH]3)c2n1` [Example 167, 3-{2-[(3R)-3-methylmorpholin-4-yl]-8-(1H-pyrazol-5-yl)-1,7-naphthyridin-4-yl}pyridin-2-ol] was run?
Answer: The IC50 was 408 nM.

Question: With `CS(C)(=O)=Nc1cc(N2CCOCC2)nc2c(-c3ccn[nH]3)nccc12` [Example 65, 4-{[dimethyl(oxido)-λ^6-sulfanylidene]amino}-2-(morpholin-4-yl)-8-(1H-pyrazol-5-yl)-1,7-naphthyridine] as the molecule, how does the IC50 read?
Answer: The IC50 was 335 nM.

Question: With `C[C@@H]1COCCN1c1cc(-c2cncn2C)c2ccnc(-c3ccn[nH]3)c2n1` [Example 70, 4-(1-methyl-1H-imidazol-5-yl)-2-[(3R)-3-methylmorpholin-4-yl]-8-(1H-pyrazol-5-yl)-1,7-naphthyridine] as the molecule, how does the IC50 read?
Answer: Its IC50 is 5.17 nM.

Question: For `C[C@@H]1COCCN1c1cc(OCCNC(=O)OC(C)(C)C)c2ccnc(-c3ccn[nH]3)c2n1` [Example 56, Tert-butyl [2-({2-[(3R)-3-methylmorpholin-4-yl]-8-(1H-pyrazol-5-yl)-1,7-naphthyridin-4-yl}oxy)ethyl]carbamate], which IC50 is on record?
Answer: The IC50 was 751 nM.

Question: For `Cc1cc(-c2cc(N3CCOCC3)nc3c(-c4ccn[nH]4)nccc23)cnc1F` [Example 224, 4-(6-fluoro-5-methylpyridin-3-yl)-2-(morpholin-4-yl)-8-(1H-pyrazol-5-yl)-1,7-naphthyridine], which IC50 is on record?
Answer: The IC50 was 52.1 nM.

Question: `c1cc(-c2nccc3c(-c4ccc5cc[nH]c5c4)cc(N4CCOCC4)nc23)[nH]n1` [Example 293, 4-(1H-indo1-6-yl)-2-(morpholin-4-yl)-8-(1H-pyrazol-5-yl)-1,7-naphthyridine] was tested. Which IC50 did it give?
Answer: The IC50 was 328 nM.

Question: For `COc1ccc(Sc2cc(N3CCOC[C@H]3C)nc3c(-c4ccn[nH]4)nccc23)cc1` [Example 222], which IC50 is on record?
Answer: Its IC50 is 50.2 nM.

Question: `C[C@@H]1COCCN1c1cc(-c2cccnc2N)c2ccnc(-c3ccn[nH]3)c2n1` [Example 155, 3-{2-[(3R)-3-methylmorpholin-4-yl]-8-(1H-pyrazol-5-yl)-1,7-naphthyridin-4-yl}pyridin-2-amine] was tested. Which IC50 did it give?
Answer: Its IC50 is 63.3 nM.

Question: `CCCn1nccc1-c1cc(N2CCOC[C@H]2C)nc2c(-c3ccn[nH]3)nccc12` [Example 117, 2-[(3R)-3-methylmorpholin-4-yl]-4-(1-propyl-1H-pyrazol-5-yl)-8-(1H-pyrazol-5-yl)-1,7-naphthyridine] was tested. Which IC50 did it give?
Answer: Its IC50 is 8.16 nM.

Question: For `C[C@@H]1COCCN1c1cc(C#N)c2ccnc(-c3ccn[nH]3)c2n1` [Example 35, 2-((R)-3-methylmorpholin-4-yl)-8-(-2H-pyrazol-3-yl]-[1,7]naphthyridine-4-carbonitrile], which IC50 is on record?
Answer: Its IC50 is 122 nM.

Question: Which IC50 does the source give for `C[C@@H]1COCCN1c1cc(-c2ccc(S(C)(=O)=O)cc2)c2ccnc(-c3cc[nH]n3)c2n1` [Example 26, 4-(4-methanesulphonylphenyl)-2-((R)-3-methylmorpholin-4-yl)-8-(2H-pyrazol-3-yl)-[1,7]naphthyridine] here?
Answer: The IC50 was 15.6 nM.

Question: How did the IC50 turn out when `CCOc1ccc(-c2cc(N3CCOCC3)nc3c(-c4ccn[nH]4)nccc23)cn1` [Example 382, 4-(6-ethoxypyridin-3-yl)-2-(morpholin-4-yl)-8-(1H-pyrazol-5-yl)-1,7-naphthyridine] was run?
Answer: Its IC50 is 199 nM.

Question: Which IC50 does the source give for `C[C@@H]1COCCN1c1cc(-c2c[nH]nc2C(F)(F)F)c2ccnc(-c3ccn[nH]3)c2n1` [Example 252, 2-[(3R)-3-methylmorpholin-4-yl]-8-(1H-pyrazol-5-yl)-4-[3-(trifluoromethyl)-1H-pyrazol-4-yl]-1,7-naphthyridine] here?
Answer: The IC50 was 6.45 nM.

Same assay, conditions: tracer B, TR-FRET; read-out: ATR binding (tracer B) IC50

Question: `COc1cc(N2CCOC[C@H]2C)nc2c(-c3cc[nH]n3)nccc12` [Example 53, 4-methoxy-2-((R)-3-methylmorpholin-4-yl)-8-(1H-pyrazol-3-yl)-[1,7]naphthyridine] was tested. Which IC50 did it give?
Answer: The IC50 was 63.5 nM.

Question: With `CS(=O)(=O)c1ccccc1-c1cc(N2CCOCC2)nc2c(-c3cc[nH]n3)nccc12` [Example 8, 4-(2-methanesulphonylphenyl)-2-(morpholin-4-yl)-8-(1H-pyrazol-3-yl)-[1,7]naphthyridine hydrochloride] as the molecule, how does the IC50 read?
Answer: The IC50 was 69.2 nM.

Question: Which IC50 does the source give for `CS(C)(=O)=Nc1cc(N2CCOCC2)nc2c(-c3ccn[nH]3)nccc12` [Example 65, 4-{[dimethyl(oxido)-λ^6-sulfanylidene]amino}-2-(morpholin-4-yl)-8-(1H-pyrazol-5-yl)-1,7-naphthyridine] here?
Answer: The IC50 was 276 nM.

Question: `C[C@@H]1COCCN1c1cc(OCCNC(=O)OC(C)(C)C)c2ccnc(-c3ccn[nH]3)c2n1` [Example 56, Tert-butyl [2-({2-[(3R)-3-methylmorpholin-4-yl]-8-(1H-pyrazol-5-yl)-1,7-naphthyridin-4-yl}oxy)ethyl]carbamate] was tested. Which IC50 did it give?
Answer: The IC50 was 324 nM.

Question: For `C[C@@H]1COCCN1c1cc(C#N)c2ccnc(-c3ccn[nH]3)c2n1` [Example 35, 2-((R)-3-methylmorpholin-4-yl)-8-(-2H-pyrazol-3-yl]-[1,7]naphthyridine-4-carbonitrile], which IC50 is on record?
Answer: The IC50 was 75.5 nM.

Question: Which IC50 does the source give for `C[C@@H]1COCCN1c1cc(-c2ccc(S(C)(=O)=O)cc2)c2ccnc(-c3cc[nH]n3)c2n1` [Example 26, 4-(4-methanesulphonylphenyl)-2-((R)-3-methylmorpholin-4-yl)-8-(2H-pyrazol-3-yl)-[1,7]naphthyridine] here?
Answer: The IC50 was 6.36 nM.
